In publication PMC3679074, “Ligand Binding and Signaling of Dendritic Cell Immunoreceptor (DCIR) Is Modulated by the Glycosylation of the Carbohydrate Recognition Domain” (PLoS ONE, 2013):
Changes are numbered by the printed parent chain.

What was measured:
DCIR-Fc [1] = molecular target: T1, DCIR-Fc (Homo sapiens, UniProt Q9UMR7); test: ELISA, biotinylated neoglycoconjugate on immobilized Fc protein; type: binding
T1 construct: gene CLEC4A; extracellular domain fused at C terminus to human IgG1 Fc (tag); produced in CHO or CHO Lec8 cells, protein A purified; 'residues 208-689' [sic]
T1 sequence (Q9UMR7 70-230): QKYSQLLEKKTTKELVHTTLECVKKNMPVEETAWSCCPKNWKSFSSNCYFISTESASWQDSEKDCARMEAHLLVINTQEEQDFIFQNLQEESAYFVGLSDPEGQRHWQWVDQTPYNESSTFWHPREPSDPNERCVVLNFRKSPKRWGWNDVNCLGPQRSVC

DCIR-Fc [2] = molecular target: T2, DCIR-Fc (Homo sapiens, UniProt Q9UMR7, N185Q); test: ELISA, soluble Fc protein on coated neoglycoconjugate; type: binding; settings: 50 µg/ml Fc protein, room temperature; multivalent PAA conjugate; mutant lacks CRD N-glycan
T2 construct: gene CLEC4A; extracellular domain fused at C terminus to human IgG1 Fc (tag); produced in CHO or CHO Lec8 cells, protein A purified; 'residues 208-689' [sic]
T2 sequence (Q9UMR7 70-230 N185Q): T1 sequence (Q9UMR7 70-230) with N116Q

CC(=O)N[C@H]1C(O)O[C@H](CO)[C@@H](O[C@@H]2O[C@@H](C)[C@@H](O)[C@@H](O)[C@@H]2O)[C@@H]1O[C@@H]1O[C@H](CO)[C@H](O)[C@H](OS(=O)(=O)O)[C@H]1O (stereo partly drawn) [sulfo-Lewis^a]
ELISA, biotinylated neoglycoconjugate on immobilized Fc protein (DCIR-Fc [1]; labelled compound (multivalent biotinylated PAA conjugate, 5 µg/ml), EGTA control subtracted): immobilized glycosylated DCIR-Fc could interact with sulfo-Lewis^a

CC(=O)N[C@H]1C(O)O[C@H](CO)[C@@H](O[C@@H]2O[C@@H](C)[C@@H](O)[C@@H](O)[C@@H]2O)[C@@H]1O[C@@H]1O[C@H](CO)[C@H](O)[C@H](O)[C@H]1O[C@@H]1O[C@@H](C)[C@@H](O)[C@@H](O)[C@@H]1O (stereo partly drawn) [Lewis^b]
ELISA, biotinylated neoglycoconjugate on immobilized Fc protein (DCIR-Fc [1]; pH 7.4, Ca2+/Mg2+, room temperature, labelled compound (multivalent biotinylated PAA conjugate), EGTA-sensitive): We observed CLR-specific binding of Man3 and Lewis^b to immobilized DCIR-Fc
ELISA, soluble Fc protein on coated neoglycoconjugate (DCIR-Fc [2]): strongly interacted with immobilized Lewis^b and Man3
